According to patent US20100227853A1, “INHIBITORS OF CYCLIC AMP PHOSPHODIESTERASES” (Trustees of Boston College, priority 2008, published 2010):
Values belong to the compound of their own block, whether it stands above or below them.

How the values were obtained:
[1] = test system: PDE2A, PDE4A, PDE4B, Cgs2; experiment: Parallel high throughput 5FOA growth screens of bioactive libraries; format: cell-based, murine PDEs; yeast Cgs2; details: 3,120 bioactive compounds, average 20 μM
Description: High throughput drug screens were carried out at the Broad Institute's Chemical Biology Program screening facility (Broad Institute, Cambridge, Mass.). Depending upon the strain, cultures were pregrown to exponential phase in EMM complete medium containing from 0.5 to 2.5 mM cAMP to repress fbp1-ura4 transcription. […] Starting cell concentrations ranged from 0.5×10^5 to 4×10^5 cells/ml depending on the screening strain. […] Other positive control dishes contained 5 mM cAMP in the 5FOA medium. Cultures were grown for 48 hours at 30° C., sealed in an airtight container with moist paper towels to prevent evaporation. Optical densities (OD600) of cultures were measured using a microplate reader. Bioinformatic analysis of the results to determine composite Z scores was performed as previously described^30, 31.

PDE7A [2] = target: T1, PDE7A (Homo sapiens, UniProt Q13946); experiment: in vitro enzyme assay PDE7A; format: biochemical; set-up: made in house; host or cells: E. coli; details: 2 micromolar compound; for remaining activity at 2 µM: read-out: percent of PDE activity present, PDE7A
T1 sequence (Q13946 whole entry): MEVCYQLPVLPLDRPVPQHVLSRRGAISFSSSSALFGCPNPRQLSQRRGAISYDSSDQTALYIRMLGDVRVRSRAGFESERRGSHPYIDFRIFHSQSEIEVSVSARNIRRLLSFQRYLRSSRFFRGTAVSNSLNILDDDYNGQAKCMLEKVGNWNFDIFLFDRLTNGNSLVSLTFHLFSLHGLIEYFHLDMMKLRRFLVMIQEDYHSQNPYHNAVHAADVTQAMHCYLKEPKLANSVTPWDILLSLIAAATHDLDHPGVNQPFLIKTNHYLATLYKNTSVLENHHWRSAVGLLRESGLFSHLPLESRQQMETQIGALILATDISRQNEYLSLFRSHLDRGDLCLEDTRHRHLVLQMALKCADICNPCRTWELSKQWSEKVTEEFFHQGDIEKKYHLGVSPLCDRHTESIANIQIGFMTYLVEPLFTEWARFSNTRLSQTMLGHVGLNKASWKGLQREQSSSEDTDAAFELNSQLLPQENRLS

PDE4D = PDE4D (Homo sapiens, UniProt Q08499); experiment: in vitro enzyme assay PDE4D (Table 7); format: biochemical; details: 2 micromolar compound; for remaining activity at 2 µM: read-out: percent of PDE activity present, PDE4D
Chain of PDE4D (Q08499 whole entry): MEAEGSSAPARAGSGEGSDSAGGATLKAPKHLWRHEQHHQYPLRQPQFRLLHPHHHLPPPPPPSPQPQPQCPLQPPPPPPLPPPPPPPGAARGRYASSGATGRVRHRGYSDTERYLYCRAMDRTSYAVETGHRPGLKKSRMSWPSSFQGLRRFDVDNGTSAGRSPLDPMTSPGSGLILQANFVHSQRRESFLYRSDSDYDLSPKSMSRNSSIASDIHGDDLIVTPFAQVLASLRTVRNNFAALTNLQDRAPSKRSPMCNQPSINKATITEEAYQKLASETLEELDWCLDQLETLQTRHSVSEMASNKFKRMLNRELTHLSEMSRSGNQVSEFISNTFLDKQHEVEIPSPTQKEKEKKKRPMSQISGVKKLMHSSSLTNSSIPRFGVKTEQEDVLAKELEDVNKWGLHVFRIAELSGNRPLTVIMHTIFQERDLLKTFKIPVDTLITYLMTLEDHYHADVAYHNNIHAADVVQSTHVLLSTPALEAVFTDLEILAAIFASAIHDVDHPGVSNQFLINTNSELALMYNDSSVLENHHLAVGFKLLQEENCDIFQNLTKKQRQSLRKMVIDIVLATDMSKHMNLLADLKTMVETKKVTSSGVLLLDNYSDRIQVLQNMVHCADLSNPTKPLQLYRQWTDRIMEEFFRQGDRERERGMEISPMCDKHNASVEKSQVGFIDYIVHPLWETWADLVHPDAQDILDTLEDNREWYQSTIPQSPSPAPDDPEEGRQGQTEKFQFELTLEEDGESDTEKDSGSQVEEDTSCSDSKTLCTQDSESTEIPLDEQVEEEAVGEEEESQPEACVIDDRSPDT

PDE4B = PDE4B (Homo sapiens, UniProt Q07343); experiment: in vitro enzyme assay PDE4B (Table 7); format: biochemical; details: 2 micromolar compound; for remaining activity at 2 µM: read-out: percent of PDE activity present, PDE4B
Chain of PDE4B (Q07343 whole entry, species assumed): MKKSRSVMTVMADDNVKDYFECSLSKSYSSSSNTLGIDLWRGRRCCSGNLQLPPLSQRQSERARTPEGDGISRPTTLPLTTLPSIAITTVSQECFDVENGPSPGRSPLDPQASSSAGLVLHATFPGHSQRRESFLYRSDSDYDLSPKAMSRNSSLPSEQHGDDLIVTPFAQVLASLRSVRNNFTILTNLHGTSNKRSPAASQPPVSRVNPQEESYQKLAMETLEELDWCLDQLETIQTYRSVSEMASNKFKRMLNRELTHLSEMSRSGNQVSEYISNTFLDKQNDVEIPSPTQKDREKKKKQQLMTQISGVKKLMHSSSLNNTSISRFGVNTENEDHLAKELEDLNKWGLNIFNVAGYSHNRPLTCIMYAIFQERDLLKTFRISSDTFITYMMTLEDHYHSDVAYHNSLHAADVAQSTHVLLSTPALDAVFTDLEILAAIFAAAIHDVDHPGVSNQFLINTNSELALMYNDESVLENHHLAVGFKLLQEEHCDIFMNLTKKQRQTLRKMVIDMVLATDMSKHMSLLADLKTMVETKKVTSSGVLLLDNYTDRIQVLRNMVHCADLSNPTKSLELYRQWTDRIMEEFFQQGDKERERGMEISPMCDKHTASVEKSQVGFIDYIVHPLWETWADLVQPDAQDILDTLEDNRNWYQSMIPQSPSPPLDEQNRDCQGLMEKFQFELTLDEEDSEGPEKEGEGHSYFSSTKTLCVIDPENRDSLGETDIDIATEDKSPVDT

PDE4A = PDE4A (Homo sapiens, UniProt P27815); experiment: in vitro enzyme assay PDE4A (Table 7); format: biochemical; details: 2 micromolar compound; for remaining activity at 2 µM: read-out: percent of PDE activity present, PDE4A
Chain of PDE4A (P27815 whole entry, species assumed): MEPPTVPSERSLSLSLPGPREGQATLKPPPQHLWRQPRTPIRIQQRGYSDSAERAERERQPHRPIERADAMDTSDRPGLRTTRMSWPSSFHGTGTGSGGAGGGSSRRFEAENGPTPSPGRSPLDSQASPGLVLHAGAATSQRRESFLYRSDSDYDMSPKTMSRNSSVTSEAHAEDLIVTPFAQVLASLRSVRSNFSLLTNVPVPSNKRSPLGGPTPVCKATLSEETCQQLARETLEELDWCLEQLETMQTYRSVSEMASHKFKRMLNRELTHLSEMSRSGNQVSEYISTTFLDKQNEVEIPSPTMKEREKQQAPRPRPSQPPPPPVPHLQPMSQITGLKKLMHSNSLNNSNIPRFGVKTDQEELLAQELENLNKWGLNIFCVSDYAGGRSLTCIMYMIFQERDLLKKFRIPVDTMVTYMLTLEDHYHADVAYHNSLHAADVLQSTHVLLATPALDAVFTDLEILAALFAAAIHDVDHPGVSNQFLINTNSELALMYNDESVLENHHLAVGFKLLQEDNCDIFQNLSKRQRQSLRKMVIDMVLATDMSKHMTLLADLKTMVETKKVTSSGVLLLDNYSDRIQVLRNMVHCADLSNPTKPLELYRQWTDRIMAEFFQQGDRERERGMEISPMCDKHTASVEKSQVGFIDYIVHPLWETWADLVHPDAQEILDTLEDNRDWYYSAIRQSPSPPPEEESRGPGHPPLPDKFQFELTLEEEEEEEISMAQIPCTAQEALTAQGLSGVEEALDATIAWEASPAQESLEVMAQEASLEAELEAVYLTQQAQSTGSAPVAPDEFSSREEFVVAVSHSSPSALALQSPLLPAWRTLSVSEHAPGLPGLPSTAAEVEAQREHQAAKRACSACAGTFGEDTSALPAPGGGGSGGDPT

[3] = test system: PDE4A, PDE4B, PDE4D, PDE7A, PDE7B, PDE8A, PDE3A; experiment: Summary of PDE inhibitor profile; set-up: key to PDE inhibitor profile (Table 17): (1): Strong PDE4A, PDE4B inhibitor; (2): Strong PDE4A inhibitor; (3): Strong PDE4B, moderate PDE4A inhibitor; (4): Moderate PDE4A, PDE4B inhibitor; (5): Moderate PDE4B inhibitor; key to inhibitor class, Table 16: (1): Weak PDE7A inhibitor; (2): Strong PDE7A inhibitor; (3): Lillte/no activity under conditions used; (4): Weak PDE4A inhibitor
U937 cells = experiment: TNF alpha release by LPS-treated U937 cells; format: cell-based; details: for TNF alpha, % vehicle control: 10 uM cmpd, 0 uM BC30
PDE4A1 = target: T2, PDE4A1 (Mus musculus, UniProt O89084); experiment: 5FOA growth assay (high throughput screen, ED50) in fission yeast strain expressing PDE4A1; format: cell-based; details: high throughput 5FOA growth screen; greater than 8.53 = statistically-significant inhibitor
T2 construct: targets used in the assays are full-length proteins (as opposed to simply the catalytic domain); expressed in transfected cells; host or cells: Schizosaccharomyces pombe, PDE gene integrated in place of cgs2
T2 sequence (O89084 1-610 isoform O89084-2): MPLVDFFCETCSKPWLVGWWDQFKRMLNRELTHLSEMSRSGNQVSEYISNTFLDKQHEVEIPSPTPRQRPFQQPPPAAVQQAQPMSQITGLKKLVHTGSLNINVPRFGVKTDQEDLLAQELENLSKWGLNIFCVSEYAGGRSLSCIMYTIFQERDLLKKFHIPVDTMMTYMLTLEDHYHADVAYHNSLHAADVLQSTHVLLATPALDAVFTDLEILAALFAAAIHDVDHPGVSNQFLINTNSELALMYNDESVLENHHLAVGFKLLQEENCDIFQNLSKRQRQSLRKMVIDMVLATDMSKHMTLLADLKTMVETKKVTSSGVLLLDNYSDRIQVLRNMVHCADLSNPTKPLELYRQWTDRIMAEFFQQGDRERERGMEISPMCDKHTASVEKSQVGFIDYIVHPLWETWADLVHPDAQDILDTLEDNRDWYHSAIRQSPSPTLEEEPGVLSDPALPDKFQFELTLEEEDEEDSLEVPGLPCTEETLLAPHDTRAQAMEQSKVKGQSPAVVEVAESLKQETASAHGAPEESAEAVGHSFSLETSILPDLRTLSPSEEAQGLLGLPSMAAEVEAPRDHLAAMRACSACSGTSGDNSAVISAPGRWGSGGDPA
Method in brief: (§1)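 Fission yeast strains carrying mouse PDE4A1 or PDE4B3 and an fbp1-ura4 reporter were pregrown in EMM with 0.5–2.5 mM cAMP, then seeded at 0.5–4×10^5 cells/ml in 5FOA medium with compound. Growth was read as OD600 after 48 h at 30° C; composite Z scores were derived.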

PDE7A [4] = target: T1, PDE7A; experiment: 5FOA growth assay in fission yeast strain expressing PDE7A; format: cell-based; set-up: targets used in the assays are full-length proteins (as opposed to simply the catalytic domain); expressed in transfected cells; host or cells: Schizosaccharomyces pombe, PDE gene integrated in place of cgs2; details: unit not given
Description: PDE inhibition allows growth in 5FOA medium as measured by optical density after 48 hours incubation at 30° C. Compound BC12 and six structural analogs were tested for growth stimulation.
Cells were pregrown in EMM medium [MP Biomedicals (Solon, Ohio), 3% glucose, filter-sterilized to avoid carmelization, which would introduce variability into the optical density of the medium] containing from 0 mM to 2.5 mM cAMP (or either 0.5 mM or 1.0 mM cGMP). This was to repress expression of the fbp1-ura4 reporter prior to exposure of cells to 5FOA medium. Cells were grown at 30° C. to exponential phase (approximately 10^7 cells/ml). Cells were collected by centrifugation and resuspended in 5FOA medium, and 25 μl were transferred to 384-well microtiter dishes (untreated, with flat clear bottoms) that had been pre-filled with 25 μl 5FOA medium and pre-pinned with 100 nl of compounds (stock solutions were generally 10 mM). Starting cell concentrations ranged from 0.5×10^5 to 4×10^5 cells/ml depending on the screening strain. […] Other positive control dishes contained 5 mM cAMP in the 5FOA medium for PDEs that lack appropriate control compounds. Cultures were grown for 48 hours at 30° C., sealed in an airtight container with moist paper towels to prevent evaporation. Optical densities (OD600) of cultures were measured using a microplate reader. Bioinformatic analysis of the results to determine composite Z scores was performed as previously described (1, 3).

PDE4B3 = target: T3, PDE4B3 (Mus musculus, UniProt Q8VBU5); experiment: 5FOA growth assay in fission yeast strain expressing PDE4B3; format: cell-based, Murine; details: 20 uM
T3 construct: targets used in the assays are full-length proteins (as opposed to simply the catalytic domain); expressed in transfected cells; host or cells: Schizosaccharomyces pombe, PDE gene integrated in place of cgs2
T3 sequence (Q8VBU5 1-721): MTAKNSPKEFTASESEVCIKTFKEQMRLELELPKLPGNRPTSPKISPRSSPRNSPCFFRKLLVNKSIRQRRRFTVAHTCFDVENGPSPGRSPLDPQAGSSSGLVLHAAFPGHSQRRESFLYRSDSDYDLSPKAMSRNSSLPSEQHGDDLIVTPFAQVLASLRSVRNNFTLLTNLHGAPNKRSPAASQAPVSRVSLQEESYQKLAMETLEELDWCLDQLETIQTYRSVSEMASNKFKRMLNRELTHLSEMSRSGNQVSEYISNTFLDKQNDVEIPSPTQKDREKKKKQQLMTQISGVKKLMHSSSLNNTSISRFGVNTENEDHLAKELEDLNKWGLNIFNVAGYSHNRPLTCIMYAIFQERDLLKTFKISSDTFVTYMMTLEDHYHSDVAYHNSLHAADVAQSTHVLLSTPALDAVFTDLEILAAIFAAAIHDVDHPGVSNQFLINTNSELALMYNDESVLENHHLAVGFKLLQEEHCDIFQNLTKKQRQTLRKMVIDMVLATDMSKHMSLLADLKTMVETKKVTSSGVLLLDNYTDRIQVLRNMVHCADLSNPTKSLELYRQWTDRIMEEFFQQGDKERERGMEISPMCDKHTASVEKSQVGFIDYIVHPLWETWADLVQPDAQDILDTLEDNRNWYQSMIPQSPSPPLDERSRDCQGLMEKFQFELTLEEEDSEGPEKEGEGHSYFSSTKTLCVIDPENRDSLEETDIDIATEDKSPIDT
Method in brief: as §1

- remaining activity at 2 µM (PDE7A [2]): 90%
- remaining activity at 2 µM (PDE4D): 68%
- remaining activity at 2 µM (PDE4B): 46%
- remaining activity at 2 µM (PDE4A): 69%
SMILES: Cc1nc(N2CCC(C)CC2)c2c(C)c(C(=O)Nc3c(F)cc(F)cc3Br)sc2n1 [Compound 58-5]

- remaining activity at 2 µM (PDE7A [2]): 20%
- remaining activity at 2 µM (PDE4D): 30%
- remaining activity at 2 µM (PDE4B): 15%
- Composite Z score, PDE4A1 (PDE4A1): 27.41
- remaining activity at 2 µM (PDE4A): 14%
SMILES: COc1cc(NC(=O)c2sc3ncnc(N4CCCCC4C)c3c2C)cc(OC)c1OC (stereo not drawn) [Compound 58-3]

- percent of PDE activity present, PDE7A (PDE7A [2]): 75%
- remaining activity at 2 µM (PDE4D): 68%
- remaining activity at 2 µM (PDE4B): 61%
- remaining activity at 2 µM (PDE4A): 73%
SMILES: CCN(CC)c1nc(C)nc2sc(C(=O)Nc3ccc(F)cc3F)c(C)c12 [Compound 58-6]

- ED50, 7A (PDE7A [4]): ND ND inactive ND ND
- 1 Assay (20 uM) 4B3 (PDE4B3): 8.4406 ND ND ND ND
SMILES: CCOC(=O)c1sc2sc(C(=O)OCC)c(-c3ccco3)c2c1N [Compound 30-1]
- inhibitor class, Table 16 [3]: 1441, C04 KM03459 30-1 (4)

- percent of PDE activity present, PDE7A (PDE7A [2]): 48%
- percent of PDE activity present, PDE4D (PDE4D): 76%
- percent of PDE activity present, PDE4B (PDE4B): 56%
- percent of PDE activity present, PDE4A (PDE4A): 84%
SMILES: CCN(CC)c1nc(C)nc2sc(C(=O)Nc3ccc(F)cc3F)c(C)c12 [Compound 58-8]

Further lines, the compound ahead of its results:

SMILES: COc1c2occc2c(OC)c2c(=O)cc(C)oc12 [khellin]
- hit in high throughput screens (promotes 5FOA^R growth), in words [1]: identified

SMILES: COc1c2ccoc2cc2oc(C)cc(=O)c12 [visnagin]
- hit in high throughput screens (promotes 5FOA^R growth), in words [1]: identified

SMILES: CC(C)n1c2ccc(Cl)cc2c2nc3ccccc3nc21 [Compound 35]
- PDE inhibitor profile (Table 17) ([3]; overall classification, Table 17 footnotes): 35 (1)
- TNF (U937 cells; 3 HOURS): 4383 pg/mL
- TNF, % EtOH cntrl (U937 cells; 3 HOURS): 90.7%
- TNF (U937 cells; 20 HOURS): 11728 pg/mL
- TNF, % EtOH cntrl (U937 cells; 20 HOURS): 85.7%
- TNF alpha, % vehicle control (U937 cells; after 3 h.): 95.8%
- TNF alpha, % vehicle control (U937 cells; after 20 h.): 66.1%

SMILES: Cc1cc2cc3c(C)cc(=O)oc3c(C)c2o1 [trioxsalen]
- hit in high throughput screens (promotes 5FOA^R growth), in words [1]: identified
